Tests used:
Assay type in all cases: cell-based
[1] = target: AXL (phospho-AXL, Gas6-stimulated A-172 glioblastoma cells) (Homo sapiens (Human), UniProt P30530); assay: AXL autophosphorylation ELISA in A-172 cells (Example E); conditions: cellular activity; AXL autophosphorylation ELISA in A-172 cells; read-out: Axl IC50
In short: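 Phospho-AXL in lysates was quantified by ELISA, normalised to DMSO (100%) and reference inhibitor (0%) controls. IC50 by 4-parameter logistic fit.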

[2] = target: KDR (phospho-KDR, VEGF165-stimulated HUVEC cells) (Homo sapiens (Human), UniProt P35968); assay: KDR autophosphorylation ELISA in HUVEC cells (Example G); conditions: cellular activity; KDR autophosphorylation ELISA in HUVEC cells
Chain of KDR (phospho-KDR, VEGF165-stimulated HUVEC cells) (P35968 20-1356): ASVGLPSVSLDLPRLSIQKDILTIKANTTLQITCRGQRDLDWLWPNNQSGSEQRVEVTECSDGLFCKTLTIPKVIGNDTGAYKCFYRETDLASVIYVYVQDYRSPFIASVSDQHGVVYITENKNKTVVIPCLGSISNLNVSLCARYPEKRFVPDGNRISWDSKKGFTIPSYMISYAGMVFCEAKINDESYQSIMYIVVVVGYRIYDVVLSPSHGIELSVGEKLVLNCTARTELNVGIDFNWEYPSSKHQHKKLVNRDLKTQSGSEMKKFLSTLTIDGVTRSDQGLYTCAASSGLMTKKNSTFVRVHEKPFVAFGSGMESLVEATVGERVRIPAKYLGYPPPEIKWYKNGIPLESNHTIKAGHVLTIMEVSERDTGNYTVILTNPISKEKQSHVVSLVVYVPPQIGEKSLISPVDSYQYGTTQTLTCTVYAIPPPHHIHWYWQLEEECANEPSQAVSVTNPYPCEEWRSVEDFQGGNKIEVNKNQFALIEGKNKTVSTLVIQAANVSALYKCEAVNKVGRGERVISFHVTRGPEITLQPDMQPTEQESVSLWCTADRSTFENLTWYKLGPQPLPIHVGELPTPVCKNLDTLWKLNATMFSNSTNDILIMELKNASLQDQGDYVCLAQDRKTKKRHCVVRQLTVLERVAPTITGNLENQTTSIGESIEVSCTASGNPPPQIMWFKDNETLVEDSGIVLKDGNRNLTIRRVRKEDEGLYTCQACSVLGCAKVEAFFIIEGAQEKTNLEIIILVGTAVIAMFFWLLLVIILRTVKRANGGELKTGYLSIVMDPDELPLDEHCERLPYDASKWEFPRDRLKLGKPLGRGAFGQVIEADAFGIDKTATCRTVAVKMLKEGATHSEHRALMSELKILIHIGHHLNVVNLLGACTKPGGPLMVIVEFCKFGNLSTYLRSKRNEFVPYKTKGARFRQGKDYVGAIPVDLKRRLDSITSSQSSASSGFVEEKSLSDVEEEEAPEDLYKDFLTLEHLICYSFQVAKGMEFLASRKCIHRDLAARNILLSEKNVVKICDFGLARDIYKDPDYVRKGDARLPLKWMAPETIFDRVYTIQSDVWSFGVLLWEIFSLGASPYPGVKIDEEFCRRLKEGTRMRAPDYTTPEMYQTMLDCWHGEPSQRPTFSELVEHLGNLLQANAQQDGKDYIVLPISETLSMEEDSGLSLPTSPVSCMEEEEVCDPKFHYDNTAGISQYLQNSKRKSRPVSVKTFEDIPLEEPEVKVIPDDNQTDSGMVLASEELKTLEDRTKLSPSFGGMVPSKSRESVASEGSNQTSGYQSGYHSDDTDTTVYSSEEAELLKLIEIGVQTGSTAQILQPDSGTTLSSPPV
In short: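 Cells seeded, grown 24 h at 37 °C, starved 24 h serum-free; cpd 8-pt curve, 0.3% DMSO, 1 h; VEGF165 100 ng/mL, 5 min; cold PBS wash, lysis with orthovanadate and protease/phosphatase inhibitors; pKDR ELISA; IC50 by 4-parameter logistic regression.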

[3] = target: Met (phospho-Met, HGF-stimulated PC-3 prostate cancer cells) (Homo sapiens (Human), UniProt P08581); assay: Met autophosphorylation ELISA in PC-3 cells (Example F); conditions: cellular activity; Met autophosphorylation ELISA in PC-3 cells; read-out: c-Met IC50
Chain of Met (phospho-Met, HGF-stimulated PC-3 prostate cancer cells) (P08581 25-1390): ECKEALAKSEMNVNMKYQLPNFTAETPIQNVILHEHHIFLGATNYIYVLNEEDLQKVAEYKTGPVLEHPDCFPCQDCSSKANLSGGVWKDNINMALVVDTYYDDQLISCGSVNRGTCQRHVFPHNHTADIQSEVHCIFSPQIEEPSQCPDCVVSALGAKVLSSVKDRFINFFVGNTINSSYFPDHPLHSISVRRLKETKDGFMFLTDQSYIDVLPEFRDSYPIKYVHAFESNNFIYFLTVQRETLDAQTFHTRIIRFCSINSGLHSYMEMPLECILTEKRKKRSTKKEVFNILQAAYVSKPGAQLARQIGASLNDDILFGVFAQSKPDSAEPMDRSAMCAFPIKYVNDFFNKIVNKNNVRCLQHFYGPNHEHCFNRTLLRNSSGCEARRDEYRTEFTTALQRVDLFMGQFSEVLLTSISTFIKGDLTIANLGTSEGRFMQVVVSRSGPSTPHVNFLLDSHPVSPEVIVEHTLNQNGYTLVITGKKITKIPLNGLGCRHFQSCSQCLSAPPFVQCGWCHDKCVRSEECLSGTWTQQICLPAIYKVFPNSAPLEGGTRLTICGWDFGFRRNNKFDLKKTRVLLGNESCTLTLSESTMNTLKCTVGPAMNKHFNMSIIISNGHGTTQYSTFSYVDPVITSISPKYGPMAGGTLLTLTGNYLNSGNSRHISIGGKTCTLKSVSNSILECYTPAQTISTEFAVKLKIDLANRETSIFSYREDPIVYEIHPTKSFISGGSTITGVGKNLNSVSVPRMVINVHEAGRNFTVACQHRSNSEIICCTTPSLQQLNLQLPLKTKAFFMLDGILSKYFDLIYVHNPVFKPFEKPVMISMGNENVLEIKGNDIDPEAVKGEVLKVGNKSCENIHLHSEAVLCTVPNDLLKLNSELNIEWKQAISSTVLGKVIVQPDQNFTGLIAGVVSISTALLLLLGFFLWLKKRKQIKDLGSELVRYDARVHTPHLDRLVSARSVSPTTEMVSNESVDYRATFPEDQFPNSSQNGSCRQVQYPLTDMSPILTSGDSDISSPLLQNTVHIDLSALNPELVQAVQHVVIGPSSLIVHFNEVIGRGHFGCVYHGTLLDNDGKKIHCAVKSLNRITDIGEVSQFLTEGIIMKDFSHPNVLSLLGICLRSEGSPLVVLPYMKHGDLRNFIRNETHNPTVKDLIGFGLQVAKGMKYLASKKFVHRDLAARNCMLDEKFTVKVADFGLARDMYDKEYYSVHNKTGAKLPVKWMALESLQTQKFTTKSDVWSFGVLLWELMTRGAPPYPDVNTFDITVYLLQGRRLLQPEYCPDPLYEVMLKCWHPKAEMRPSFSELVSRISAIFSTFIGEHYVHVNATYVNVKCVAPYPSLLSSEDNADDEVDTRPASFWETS
In short: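 IC50 values derive from a 4-parameter logistic fit of phospho-Met (panTyr) sandwich ELISA signals in PC-3 lysates, scaled between DMSO and reference-inhibitor wells. Cells, starved 3 h in serum-free medium, had 1 h compound exposure (8 doses, 0.3% DMSO) before 10 min stimulation with 100 ng/mL HGF.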

[4] = target: Mer (phospho-Mer, MERTK-transfected 293A cells) (Homo sapiens (Human), UniProt Q12866); assay: Mer autophosphorylation ELISA in transient transfected 293A cells (Example H); conditions: cellular activity; Mer autophosphorylation ELISA in transient transfected 293A cells
Chain of Mer (phospho-Mer, MERTK-transfected 293A cells) (Q12866 21-999): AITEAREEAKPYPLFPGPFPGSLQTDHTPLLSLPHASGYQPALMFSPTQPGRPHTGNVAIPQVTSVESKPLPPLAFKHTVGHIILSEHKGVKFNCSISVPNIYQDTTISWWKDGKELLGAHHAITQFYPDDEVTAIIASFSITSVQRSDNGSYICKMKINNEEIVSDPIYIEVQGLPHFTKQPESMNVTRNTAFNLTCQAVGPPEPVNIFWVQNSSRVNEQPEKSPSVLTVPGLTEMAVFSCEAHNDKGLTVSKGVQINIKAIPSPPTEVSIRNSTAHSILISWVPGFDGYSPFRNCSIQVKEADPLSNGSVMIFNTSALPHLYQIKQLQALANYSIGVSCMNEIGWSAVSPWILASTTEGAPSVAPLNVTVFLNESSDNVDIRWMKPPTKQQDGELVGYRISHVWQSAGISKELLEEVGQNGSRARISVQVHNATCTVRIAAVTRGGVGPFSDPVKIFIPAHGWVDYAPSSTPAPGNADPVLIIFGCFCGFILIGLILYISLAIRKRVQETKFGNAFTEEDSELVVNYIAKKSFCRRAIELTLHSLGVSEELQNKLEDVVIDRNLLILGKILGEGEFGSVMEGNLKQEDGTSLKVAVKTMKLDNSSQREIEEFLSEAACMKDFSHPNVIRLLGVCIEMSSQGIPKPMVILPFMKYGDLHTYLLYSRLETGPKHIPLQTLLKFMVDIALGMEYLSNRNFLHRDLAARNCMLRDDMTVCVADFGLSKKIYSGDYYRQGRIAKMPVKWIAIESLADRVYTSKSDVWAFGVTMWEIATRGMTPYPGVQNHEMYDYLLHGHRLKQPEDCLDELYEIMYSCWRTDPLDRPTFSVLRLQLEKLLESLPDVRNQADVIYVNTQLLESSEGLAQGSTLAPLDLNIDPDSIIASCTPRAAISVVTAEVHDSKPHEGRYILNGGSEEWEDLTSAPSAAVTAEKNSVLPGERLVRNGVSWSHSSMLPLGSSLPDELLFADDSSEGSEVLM
In short: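 Human MERTK transiently transfected into 293A cells; compounds as 8-point dose curve in serum-free medium (0.3% DMSO final), 1 h. Lysates assayed by phospho-Mer sandwich ELISA against phospho-Mer standard; DMSO = 100%, reference inhibitor = 0% activity; IC50 from 4-parameter logistic fit.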

Chain of AXL (phospho-AXL, Gas6-stimulated A-172 glioblastoma cells) (P30530 26-894): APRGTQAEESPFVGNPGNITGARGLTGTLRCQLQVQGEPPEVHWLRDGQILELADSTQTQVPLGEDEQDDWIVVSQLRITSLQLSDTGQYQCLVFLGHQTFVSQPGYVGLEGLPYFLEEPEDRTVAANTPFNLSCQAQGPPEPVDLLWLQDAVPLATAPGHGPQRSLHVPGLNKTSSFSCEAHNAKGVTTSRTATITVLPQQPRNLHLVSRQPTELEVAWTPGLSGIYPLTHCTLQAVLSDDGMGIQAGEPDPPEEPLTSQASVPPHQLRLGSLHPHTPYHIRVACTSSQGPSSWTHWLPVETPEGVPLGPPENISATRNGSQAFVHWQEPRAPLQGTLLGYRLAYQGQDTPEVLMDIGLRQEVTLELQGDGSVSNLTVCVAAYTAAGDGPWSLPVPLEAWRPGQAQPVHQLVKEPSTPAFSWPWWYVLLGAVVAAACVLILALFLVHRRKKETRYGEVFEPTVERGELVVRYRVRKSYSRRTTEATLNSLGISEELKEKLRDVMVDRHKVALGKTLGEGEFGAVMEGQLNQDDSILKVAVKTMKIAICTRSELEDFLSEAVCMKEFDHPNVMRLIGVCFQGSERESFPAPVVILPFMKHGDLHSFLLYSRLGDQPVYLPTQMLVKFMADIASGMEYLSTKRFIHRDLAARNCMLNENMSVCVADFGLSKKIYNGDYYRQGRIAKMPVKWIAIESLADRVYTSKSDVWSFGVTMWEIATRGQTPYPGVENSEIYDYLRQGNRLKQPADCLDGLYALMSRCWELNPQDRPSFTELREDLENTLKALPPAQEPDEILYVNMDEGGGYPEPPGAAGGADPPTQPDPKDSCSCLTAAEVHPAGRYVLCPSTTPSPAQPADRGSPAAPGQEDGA

IC50 [1]	IC50 [2]	IC50 [3]	IC50 [4]	SMILES
< 100 nM	> 300 nM	< 100 nM	< 100 nM	COc1cnc2c(Oc3ccc(NC(=O)c4c5n(c(C)c(-c6ccc(F)cc6C)c4=O)CCOC5)cc3F)ccnc2c1 [Compound 784, N-[3-fluoro-4-[(7-methoxy-1,5-naphthyridin-4-yl)oxy]phenyl]-7-(4-fluoro-2-methylphenyl)-6-methyl-8-oxo-3,4-dihydro-1H-pyrido[2,1-c][1,4]oxazine-9-carboxamide]
< 100 nM	< 100 nM	< 100 nM	< 100 nM	COc1cc2nccc(Oc3ccc(NC(=O)c4nnc(C)c(-c5ccc(F)cc5)c4OC)cc3F)c2nc1OC [Compound 531, N-[4-[(6,7-dimethoxy-1,5-naphthyridin-4-yl)oxy]-3-fluorophenyl]-5-(4-fluorophenyl)-4-methoxy-6-methylpyridazine-3-carboxamide]
< 100 nM	< 100 nM	< 100 nM	< 100 nM	COc1nc2c(Oc3ccc(NC(=O)c4c(C)nc(C)n(-c5ccc(F)cc5)c4=O)cc3F)ccnc2cc1C [Compound 468, N-[3-fluoro-4-[(6-methoxy-7-methyl-1,5-naphthyridin-4-yl)oxy]phenyl]-1-(4-fluorophenyl)-2,4-dimethyl-6-oxopyrimidine-5-carboxamide]
< 100 nM	> 300 nM	< 100 nM	< 100 nM	Cc1cnc(C(=O)Nc2ccc(Oc3ccnc4cnc(Cl)cc34)c(F)c2)c(=O)n1-c1ccc(F)cc1 [Compound 498, N-[4-[(6-chloro-1,7-naphthyridin-4-yl)oxy]-3-fluorophenyl]-4-(4-fluorophenyl)-5-methyl-3-oxopyrazine-2-carboxamide]
< 100 nM	> 300 nM	< 100 nM	< 100 nM	COc1cc2nccc(Oc3ccc(NC(=O)c4cn(C5(C)COC5)cc(-c5ccc(F)cc5)c4=O)cc3F)c2nc1OC [Compound 54, N-[4-[(6,7-Dimethoxy-1,5-naphthyridin-4-yl)oxy]-3-fluorophenyl]-5-(4-fluorophenyl)-1-(3-methyloxetan-3-yl)-4-oxopyridine-3-carboxamide]
> 300 nM	> 300 nM	> 300 nM	< 100 nM	COc1cc2nccc(Oc3ccc(NC(=O)c4cc(-c5ccc(F)cc5)c(C)nn4)cc3F)c2nc1OC [Compound 601, N-[4-[(6,7-Dimethoxy-1,5-naphthyridin-4-yl)oxy]-3-fluorophenyl]-5-(4-fluorophenyl)-6-methylpyridazine-3-carboxamide]
< 100 nM	> 300 nM	< 100 nM	< 100 nM	Cc1ccc2nccc(Oc3ccc(NC(=O)c4cn(C)c(CO)c(-c5ccc(F)cc5)c4=O)cc3F)c2n1 [Compound 749, N-[3-fluoro-4-[(6-methyl-1,5-naphthyridin-4-yl)oxy]phenyl]-5-(4-fluorophenyl)-6-(hydroxymethyl)-1-methyl-4-oxopyridine-3-carboxamide]
< 100 nM	< 100 nM	< 100 nM	< 100 nM	COc1nc2c(Oc3ccc(NC(=O)c4c(C)nc(C)c(-c5ccc(F)cc5C)c4O)cc3F)ccnc2cc1C [Compound 471, N-[3-fluoro-4-[(6-methoxy-7-methyl-1,5-naphthyridin-4-yl)oxy]phenyl]-5-(4-fluoro-2-methylphenyl)-4-hydroxy-2,6-dimethylpyridine-3-carboxamide]
< 100 nM	< 100 nM	< 100 nM	< 100 nM	CCOc1c(C(=O)Nc2ccc(Oc3ccnc4cc(OC)c(OC)cc34)c(F)c2)nnc(C)c1-c1ccc(F)cc1 [Compound 572, N-[4-(6,7-Dimethoxyquinolin-4-yl)oxy-3-fluorophenyl]-4-ethoxy-5-(4-fluorophenyl)-6-methylpyridazine-3-carboxamide]
< 100 nM	< 100 nM	< 100 nM	< 100 nM	COc1cnc2c(Oc3ccc(NC(=O)c4c(C)nc(C)c(-c5ccc(F)c(F)c5)c4O)cc3F)ccnc2c1 [Compound 687, 5-(3,4-difluorophenyl)-N-[3-fluoro-4-[(7-methoxy-1,5-naphthyridin-4-yl)oxy]phenyl]-4-hydroxy-2,6-dimethylpyridine-3-carboxamide]
< 100 nM	100 to 300 nM	< 100 nM	< 100 nM	COc1cc2nccc(Oc3ccc(NC(=O)c4c(OC)n(C)c(C)c(-c5ccc(F)cc5)c4=O)cc3F)c2nc1OC [Compound 648, N-[4-[(6,7-dimethoxy-1,5-naphthyridin-4-yl)oxy]-3-fluorophenyl]-5-(4-fluorophenyl)-2-methoxy-1,6-dimethyl-4-oxopyridine-3-carboxamide]
< 100 nM	> 300 nM	< 100 nM	< 100 nM	COc1cc2nccc(Oc3cc(F)c(NC(=O)c4cn(C)c(C)c(-c5ccc(F)cc5)c4=O)cc3C)c2nc1OC [Compound 746, N-[4-[(6,7-dimethoxy-1,5-naphthyridin-4-yl)oxy]-2-fluoro-5-methylphenyl]-5-(4-fluorophenyl)-1,6-dimethyl-4-oxopyridine-3-carboxamide]
< 100 nM	> 300 nM	< 100 nM	< 100 nM	COc1cnc2c(Oc3ccc(NC(=O)c4cn5c(c(-c6ccc(F)cc6)c4=O)COCC5)cc3F)ccnc2c1 [Compound 661, N-[3-fluoro-4-[(7-methoxy-1,5-naphthyridin-4-yl)oxy]phenyl]-9-(4-fluorophenyl)-8-oxo-3,4-dihydro-1H-pyrido[2,1-c][1,4]oxazine-7-carboxamide]
< 100 nM	< 100 nM	< 100 nM	< 100 nM	COc1cnc2c(Oc3c(F)cc(NC(=O)c4c(C)nc(C)c(-c5ccc(F)cc5C)c4O)cc3F)ccnc2c1 [Compound 767, N-[3,5-difluoro-4-[(7-methoxy-1,5-naphthyridin-4-yl)oxy]phenyl]-5-(4-fluoro-2-methylphenyl)-4-hydroxy-2,6-dimethylpyridine-3-carboxamide]
< 100 nM	> 300 nM	< 100 nM	< 100 nM	COCCOc1cc2nccc(Oc3ccc(NC(=O)c4cc(C(C)=O)c(C)n(-c5ccc(F)cc5)c4=O)cc3)c2nc1OC [Compound 757, 5-acetyl-1-(4-fluorophenyl)-N-[4-[[6-methoxy-7-(2-methoxyethoxy)-1,5-naphthyridin-4-yl]oxy]phenyl]-6-methyl-2-oxopyridine-3-carboxamide]
< 100 nM	< 100 nM	< 100 nM	< 100 nM	CCOc1nc2c(Oc3ccc(NC(=O)c4cnc(C)c(-c5ccc(F)cc5C)c4O)cc3F)ccnc2cc1OC [Compound 677, N-[4-[(6-ethoxy-7-methoxy-1,5-naphthyridin-4-yl)oxy]-3-fluorophenyl]-5-(4-fluoro-2-methylphenyl)-4-hydroxy-6-methylpyridine-3-carboxamide]
< 100 nM	< 100 nM	< 100 nM	< 100 nM	COc1cc2nccc(Oc3ccc(NC(=O)c4c(C)ncc(-c5ccc(F)c(C)c5)c4O)cc3F)c2nc1OC [Compound 794, N-[4-[(6,7-dimethoxy-1,5-naphthyridin-4-yl)oxy]-3-fluorophenyl]-5-(4-fluoro-3-methylphenyl)-4-hydroxy-2-methylpyridine-3-carboxamide]
< 100 nM	< 100 nM	< 100 nM	< 100 nM	COCCOc1cc2nccc(Oc3ccc(NC(=O)c4c(C)ccn(-c5ccc(F)cc5)c4=O)cc3F)c2nc1OC [Compound 703, N-[3-fluoro-4-[[6-methoxy-7-(2-methoxyethoxy)-1,5-naphthyridin-4-yl]oxy]phenyl]-1-(4-fluorophenyl)-4-methyl-2-oxopyridine-3-carboxamide]
> 300 nM	< 100 nM	100 to 300 nM	< 100 nM	COc1cnc2c(Oc3ccc(NC(=O)c4cnc(C)c(-c5ccc(OC)c(C)c5)c4O)cc3F)ccnc2c1 [Compound 699, N-[3-fluoro-4-[(7-methoxy-1,5-naphthyridin-4-yl)oxy]phenyl]-4-hydroxy-5-(4-methoxy-3-methylphenyl)-6-methylpyridine-3-carboxamide]
< 100 nM	< 100 nM	< 100 nM	< 100 nM	C=C(C)c1cnc2c(Oc3ccc(NC(=O)c4cnc(C)n(-c5ccc(F)cc5)c4=O)cc3)ccnc2c1 [Compound 462, 1-(4-fluorophenyl)-2-methyl-6-oxo-N-[4-[(7-prop-1-en-2-yl-1,5-naphthyridin-4-yl)oxy]phenyl]pyrimidine-5-carboxamide]
